Test results as given in US5324747A, “N-substituted anilines, inhibitors of phospholipases A2” (Hoffmann-La Roche Inc., priority 1992, dated 1994).
Structures can show the parent of a compound that is named as a salt.

Tests used:
HSF-PLA2 = target: T1, HSF-PLA2 (Homo sapiens, UniProt P14555); assay: Assay for Inhibition of HSF-PLA2 In Vitro; type: biochemical; conditions: for IC50: read-out: Inhib of HSF-PLA2 IC50
T1 construct: extracellular enzyme obtained from human synovial fluid (HSF-PLA2); from tissue; host or cells: pooled human synovial fluid, added at 0.1% (v/v)
T1 sequence (P14555 21-144): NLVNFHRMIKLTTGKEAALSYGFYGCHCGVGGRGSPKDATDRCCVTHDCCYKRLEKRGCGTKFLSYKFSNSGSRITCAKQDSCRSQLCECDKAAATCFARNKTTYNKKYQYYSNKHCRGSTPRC
Description: Assay for Inhibition of HSF-PLA2 In Vitro
The PLA2 used in this test is the extracellular enzyme obtained from human synovial fluid (HSF-PLA2).
The optimal conditions which were developed for the assay of HSF-PLA2 inhibitors are summarized as follows. […] The reaction was initiated by the addition of HSF-PLA2 and duplicate samples of the mixture were incubated in 13×100 mm glass tubes with shaking for 30 minutes at 37° C. […] The extraction of lipids from the stopped reaction mixture was conducted by the further additions of […] of chloroform and 1 ml of water with mixing. After centrifuging, the lower chloroform phase was transferred to smaller glass tubes and the solvent was evaporated to dryness with a nitrogen stream. The extracted lipid residue was redissolved in 50 μl of a solution containing carrier oleic acid (0.2 mg/ml) of chloroform-methanol [9 to 1, v/v]). The whole lipid extract was applied to a preactivated (30 minutes at 110° C.) silica gel-impregnated glass fiber thin layer chromatography sheet (ITLC type SG sheet from Gelman Sciences, Inc., Ann Arbor, Mich.) using hexane-acetic acid (100 to 1, v/v) as the developing solvent. This TLC system rapidly (6 minutes) resolved the enzymatically released product, ^14 C-oleic acid, from the unreacted ^14 C-phospholipid substrate. The unsaturated lipids were located on the chromatogram by a brief exposure to iodine vapor. […] A control incubation of substrate in the absence of HSF-PLA2 was performed in each experiment.

PLA2 Rat Paw Edema = assay: Phospholipase A2 Rat Paw Edema; type: in vivo, Lewis rats; conditions: Rattus norvegicus; 2 hr; 30 mg/kg; read-out: % Inhib of PLA2 Rat Paw Edema 2 hr (30 mg/kg)
Description: Phospholipase A2 Rat Paw Edema
Representation compounds of the invention were tested in rats to determine their ability to inhibit the acute inflammatory response induced by the injection of snake venom phospholipase A2. Test compounds are administered intraperitoneally or orally to groups of seven Lewis rats (≈200 gm) 1 hr prior to phospholipase A2 administration. The test compounds are dissolved in dimethyl sulfoxide for intraperitoneal administration and dissolved or suspended in Labrafil M-1944CS for oral administration. At 0 hr, 5 ug (10 units) of purified phospholipase A2 from Naja naja venom (Sigma Chem. Co.) dissolved in 0.1 mL of pyrogen free saline is injected subplantarly into the right hind paw to elicit the inflammatory response. The volume (in mL) of the right hind paw is measured by immersion of the paw to the level of the lateral malleolus in an aqueous plethysmometer immediately prior to the injection of phospholipase A2 and then at 0.5, 2 and 4 hr after phospholipase A2 injection. The paw edema is calculated by subtracting the zero time reading from the readings taken after injection. The percent change of the edema volume from the vehicle treated control is calculated to determine the activity of the test compound. Statistical analysis of the mean paw edema values of the control versus the treated groups is performed using Student's t-test. Significance of changes from mean value for vehicle-treated animals (*p<0.05, **p<0.01, ***p<0.001, ns/not significant).

[1] = tested on: Croton Oil Mouse Ear Edema; assay: Croton Oil Mouse Ear Edema Test; type: in vivo, CD-1 mice; conditions: topical, coapplied, 6 hours
Description: Twenty five μl of a 1% croton oil solution [dissolved in a mixture of pyridine/water/diethyl ether at a ratio of 5/20/75 (croton oil vehicle)] are applied to the outer side of the right ear of 3-4 week old made CD-1 mice (8 animals per group). The test compounds are dissolved directly in the 1% croton oil solution at various concentrations and coapplied. Control animals receive 25 μl of croton oil vehicle on the right ear. Biopsy punches are removed at 6 hours from the right ear of the animals using a 6 mm skin trephine (Roboz, Washington, D.C.) and the wet weight of the ear punches is determined. The weight of the biopsy punches is a measure of ear inflammation, primarily edema. The data are expressed as percent inhibition relative to control groups.

[2] = read-out: Inhib of HSF-PLA2, % inhibition

Row | Compound | inhibition at 5 µM (HSF-PLA2; (5 μM), read-out: Inhib of HSF-PLA2, % inhibition) [%] | inhibition in vivo at 30 mg/kg (PLA2 Rat Paw Edema) [%] | % Inhib of Croton Oil Mouse Ear Edema (1 mg) [1] [%] | inhibition at 1 µM (HSF-PLA2; [2]) [%] | IC50 (HSF-PLA2) [nM] | inhibition at 10 µM (HSF-PLA2; [2]) [%]
1 | CCCCCCCCCCCCCCCCCCOc1cc(OCC(=O)OC)cc(N(CC(=O)O)CC(=O)O)c1 [Example 58b, N-(carboxymethyl)-N-[3-(2-methoxy-2-oxoethoxy)-5-(octadecyloxy)phenyl]glycine] | 91 | 20 | 19 | – | – | –
2 | CCCCCCCCCCCCCCCCCCOc1cc(N(CC(=O)O)CC(=O)O)cc([N+](=O)[O-])c1 [Example 93, N-(Carboxymethyl)-N-[3-nitro-5-(octadecyloxy)phenyl]glycine] | – | 20 | 0 | 56 | – | –
3 | CCCCCCCCCCCCCCCCCCOc1cc(OCCCCC(=O)O)cc(N(CC(=O)O)CC(=O)O)c1 [Example 65, N-[3-(4-Carboxybutoxy)-5-(octadecyloxy)phenyl]-N-(carboxymethyl)glycine] | – | 35 | 91 | – | 860 | –
4 | CCCCCCCCCCCCCCCCCCOc1cc(N(CC(=O)O)CC(=O)O)cc([S+]([O-])CC(=O)O)c1 (stereo not drawn) [Example 168, [[3-[bis(Carboxymethyl)amino]-5-(octadecyloxy)phenyl]sulfinyl]acetic acid] | – | 45 | 83 | 26 | – | –
5 | O=C(O)CCCCCCCCCCOc1cc(OCCCCCCCCCCC(=O)O)cc(N(CC(=O)O)CC(=O)O)c1 [Example 6k, N-(carboxymethyl)-N-[3,5-bis[(11-hydroxy-11-oxoundecyl)oxy]phenyl]glycine] | – | 0 | 16 | – | – | 35
6 | CCCCCCCCCCCCCCCCCCOc1cc(OCCOCCOCCOCCOC)cc(N(CC(=O)O)CC(=O)O)c1 [Example 156, N-(Carboxymethyl)-N-[3-[2-[2-(2-methoxyethoxy)ethoxy]ethoxy]ethoxy]-5-(octadecyloxy)phenyl glycine] | – | 29 | – | 100 | – | –
7 | CCCCCCCCC(O)COc1cc(OCC(O)CCCCCCCC)cc(N(CC(=O)O)CC(=O)O)c1 (racemic) [Example 6h, rac-N-(carboxymethyl)-N-[3,5-bis[[2-hydroxydecyl)oxy]phenyl]glycine] | – | 5 | – | – | 500 | –
8 | CCCCOc1cc(OCCCC)cc(N(CC(=O)O)CC(=O)O)c1 [Example 6a, N-[3,5-bis(butoxy)phenyl]-N-(carboxymethyl)glycine] | – | 33 | – | – | 2000 | –
9 | CCCCCCCCCCCCCCCCCCOc1cc(NC(C)=O)cc(N(CC(=O)O)CC(=O)O)c1 [Example 98] | – | 51 | – | 98 | – | –
10 | CCCCCCCCCCCCCCCCCCOc1cccc(NCC(=O)O)c1 [Example 125, N-[3-(Octadecyloxy)phenyl]glycine] | – | – | 75 | – | – | 55
11 | CCCCCCCCCCCCCCNC(=O)Oc1ccc(N(CC(=O)O)CC(=O)O)cc1OC(=O)NCCCCCCCCCCCCCC [Example 119e, N-(carboxymethyl)-N-[3,4-bis[[(tetradecylamino)carbonyl]oxy]phenyl]glycine] | – | – | 0 | 33 | – | –
12 | CCCCCCCCCCOc1cc(OCCCCCCCCCC)cc(N(CC(=O)O)CC(=O)OC)c1 [Example 31, N-(2-Methoxy-2-oxoethyl)-N-[3,5-bis(decyloxy)phenyl]glycine] | – | 21 | 50 | – | – | –
13 | CCCCCCCCCCCCCCCCCC(=O)Nc1cccc(N(CC(=O)O)CC(=O)O)c1 [Example 46] | – | 44 | 35 | – | – | –
14 | O=C(O)CN(CC(=O)O)c1cc(OCCCc2ccccc2)cc(OCCCc2ccccc2)c1 [Example 6g, N-(carboxymethyl)-N-[3,5-bis(3-phenylpropoxy)phenyl]glycine] | – | 26 | – | – | 1300 | –
15 | CCCCCCCCCCOc1cc(OCCCCCCCCCC)cc(N(CC(=O)OCCN(CC)CC)CC(=O)OCCN(CC)CC)c1 [Example 130, N-[3,5-bis(Decyloxy)phenyl]-N-[2-[2-(diethylamino)ethoxy]-2-oxoethyl]glycine 2-(diethylamino)ethyl ester dihydrochloride] | – | 2 | – | – | – | –
16 | CCCCc1ccc(N(CC(=O)O)CC(=O)O)cc1 [Example 39b, N-(carboxymethyl)-N-(4-butylphenyl)glycine] | – | -9 | – | – | 264000 | –
17 | CCCCCCCCCCCCCC(=O)Oc1ccc(N(CC(=O)O)CC(=O)O)cc1OC(=O)CCCCCCCCCCCCC [Example 119b, N-(carboxymethyl)-N-[3,4-bis[(1-oxotetradecyl)oxy]phenyl]glycine] | – | – | 75 | 80 | – | –
18 | CCCCCCCCCCCCCCCCCCOc1cc(SC)cc(N(CC(=O)O)CC(=O)O)c1 [Example 166, N-(Carboxymethyl)-N-[3-(methylthio)-5-(octadecyloxy)phenyl]glycine] | – | 31 | – | 88 | – | –
19 | CCCCCCCCCCOc1cc(C(=O)OC)cc(N(CC(=O)O)CC(=O)O)c1 [Example 69c, N-(carboxymethyl)-N-[(3-methoxycarbonyl)-5-(decyloxy)phenyl]glycine] | – | 1 | 78 | – | – | –
20 | CCCCCCCCCCOc1cc(OCCCCCCCCCC)cc(N(CC(=O)OCOC(C)=O)CC(=O)OCOC(C)=O)c1 [Example 132, N-[2-[(Acetyloxy)methoxy]-2-oxoethyl]-N-[3,5-bis(decyloxy)phenyl]glycine (acetyloxy)methyl ester] | – | – | 36 | – | – | –
21 | CCCCCCCCCCCCCCCCCCOc1cc(OCCCOc2ccc(C(=O)O)cc2)cc(N(CC(=O)O)CC(=O)O)c1 [Example 58p] | – | – | 0 | – | 600 | –
22 | CCCCCCCCCCOc1cc(OCCCCCCCCCC)cc(N(CC(=O)OCC(=O)N(CCO)CCO)CC(=O)OCC(=O)N(CCO)CCO)c1 [Example 131] | – | 18 | 47 | – | – | –
23 | CCCCCCCCCCCCCCCCCCNC(=O)Oc1ccc(N(CC(=O)O)CC(=O)O)cc1OC(=O)NCCCCCCCCCCCCCCCCCC [Example 119d, N-(carboxymethyl)-N-[3,4-bis[[(octadecylamino)carbonyl]oxy]phenyl]glycine] | – | – | 14 | 19 | – | –
24 | CCCCCCOc1cc(OCCCCCC)cc(N(CC(=O)O)CC(=O)O)c1 [Example 6b, N-(carboxymethyl)-N-[3,5-bis(hexyloxy)phenyl]glycine] | – | 25 | – | – | 2100 | –
25 | CCCCCCCCCCCCCCNC(=O)c1cc(C(=O)NCCCCCCCCCCCCCC)cc(N(CC(=O)O)CC(=O)O)c1 [Example 6q, N-(carboxymethyl)-N-[3,5-bis[(tetradecylamino)carbonyl]phenyl]glycine] | – | 0 | – | – | 300 | –
26 | CCCCCCCCCCCCCCCc1cccc(OCCCOc2cccc(N(CC(=O)O)CC(=O)O)c2)c1 [Example 36i, N-(carboxymethyl)-N-[3-{3-(3-pentadecylphenoxy)propoxy]phenyl]glycine] | – | 7 | – | – | 400 | –
27 | CCCCCCCCCCCCCCCCCCOc1cc(N(CC(=O)O)CC(=O)O)cc([S+](C)[O-])c1 (stereo not drawn) [Example 172, N-(Carboxymethyl)-N-[3-(methylsulfinyl)-5-(octadecyloxy)phenyl]glycine] | – | 43 | – | 39 | – | –
